Reference: US7094761B2, “Methods and compounds for prevention and treatment of elevated intraocular pressure and related conditions” (Theratechnologies Inc., priority 2002, dated 2006)
pIC50: −log10 of the molar value.

Test system: intraocular pressure in piglets
Conditions: for pIC50: pig, in vivo; for effect on basal intraocular pressure: piglet, peptide in saline applied topically as drops, monitored for 15 min
Protocol: Method: Newborn pigs (1–3 days old) were anesthetized with 1.5% halothane for tracheostomy and catheterization of the right femoral vein for drug administration. Animals were ventilated by means of a Harvard small animal respirator with a gas mixture of 25% O2 and 75% N2. Halothane was discontinued after surgery and immediately thereafter the animals were sedated with Alpha-chloralose (50 mg/kg i.v.) and paralyzed with pancuronium (0.1 mg/kg i.v.). Animals were placed under radiant warmer to keep their body temperature at 37° C. A butterfly needle (24G) is inserted into the anterior chamber of both eyes and connected to a Statham pressure transducer connected to a Gould multichannel recorder. Intraocular pressure is then allowed to stabilize for 15 minutes. […] The intraocular pressure was monitored for 15 minutes at which time a maximal effect was observed.
Peptides dissolved in saline were applied to the eye after 15 min of stabilization of intraocular pressure and changes in pressure were monitored for 15 min. The deviation (negative for hypotension) was plotted as a function of time (min).
The experiments were done as above, except that intraocular pressure was plotted versus the dose of peptide used.

pIC50 | Molecule | effect on basal intraocular pressure
6.47 | CC[C@H](C)[C@H](N)C(=O)N[C@@H](Cc1ccccc1)C(=O)N[C@@H](CC(=O)O)C(=O)N[C@@H](CO)C(=O)N[C@H](C(=O)N[C@@H](CCC(=O)O)C(=O)N[C@@H](CS)C(=O)N[C@@H](Cc1c[nH]c2ccccc12)C(=O)O)[C@@H](C)O [Peptide 1405, NH2-Ile Phe Asp Ser Thr Gln Cys Trp-OH] | produced a decrease in ocular pressure
 | NH2-Phe Ser Leu Thr Gln Lys Tyr Cys-OH (H-FSLTQKYC-OH) [Peptide 1401] | produced a decrease in ocular pressure
7.06 | H-HIICSPLR-OH [Peptide 1402, NH2-His Ile Ile Cys Ser Pro Leu Arg-OH] | produced a decrease in ocular pressure
